In a melting point compilation (Tetko et al.) one finds melting point data, which are given here for 108 compounds.

The structures appear in SMILES notation.

As for `CCc1c(C)nc(N)nc1Cl`, the melting point lay within 213 to 214 °C.

Regarding `CC(=O)NC(CCC(=O)O)C(=O)O` (stereo not drawn), the melting point worked out at 199 °C.

`O=C1NC(=O)C2CC(c3ccccc3)CCC12` (stereo not drawn) had a melting point of 134 to 136 °C.

`Cc1cccc2cc3ccccc3c(=O)n12`: the melting point came out at 78 °C.

Compound `COc1cc(F)ccc1C(C)=O` displayed a melting point of 52 °C.

On to `CC(=O)OCC(=O)C1CCC2C3CCC4=CC(=O)CCC4(C)C3CCC12C` (stereo not drawn), for which the melting point was 157 °C.

The compound `OCCCC#CC#CCCCO` registered a melting point of 45.5 to 47 °C.

Take `Ic1cc(I)cc(I)c1`: the melting point stood at 184 °C.

Consider `FC(F)(F)C(F)(F)C(F)(F)N(C(F)(F)C(F)(F)C(F)(F)F)C(F)(F)C(F)(F)C(F)(F)F`, for which the melting point is -52 °C.

As to `O=[N+]([O-])c1ccc(C2Nn3c(nnc3-c3cccnc3)S2)cc1` (stereo not drawn), the melting point was in the range of 245 to 246 °C.

The compound `CCOC(=O)c1csc(Cn2cnc(Cl)c2Cl)n1` came in with a melting point of 126 to 129 °C.

In turn, `N#Cc1ccc(Cl)nc1` showed a melting point of 118 °C.

Take `c1ccc(N2CCOCC2)cc1`: the melting point is 51 to 54 °C.

`O=[N+]([O-])c1ccc(O)c(CBr)c1` returned a melting point of 145 to 149 °C.

With `Cc1cc(C)n2cnnc2n1`, the melting point lay within 165 to 167 °C.

The compound `O=C(O)c1cnc2ccccn12` showed a melting point of 196 to 197 °C.

For the compound `Fc1ccc(C=Nn2c(C(F)(F)F)n[nH]c2=S)cc1`, the melting point is 276 °C.

The compound `Cc1nc(Cl)ccc1I` had a melting point of 32 °C.

For the compound `O=C(O)C=Cc1ccccc1Cl`, the melting point lay within 209 to 212 °C.

`NC(=O)NN=C(c1cc2ccccc2o1)c1cc2ccccc2o1` gave a melting point of 189 to 190 °C.

`COc1ccc(C(=O)c2cccc(Cl)c2)cc1[N+](=O)[O-]` gave a melting point of 109 to 114 °C.

On to `CC=CC=CC`, for which the melting point was -79 °C.

`COc1cccc2c(O)c3ccccc3nc12` displayed a melting point of 284 to 287 °C.

As to `COCCCl`, the melting point is -55 °C.

For `O=C(O)c1csc(N2CCOCC2)n1`, the melting point fell in the range of 175 to 177 °C.

Take `CC(C)(C)OC(=O)N1CCC(N)CC1`: the melting point came out at 46 °C.

Turning to `CN(c1c(F)c(F)c(C#N)c(F)c1F)[N+](=O)[O-]`, the melting point stood at 53 °C.

With `SCCCS`, the melting point is -79 °C.

For the compound `Cc1n[nH]c2c(=O)n(-c3ccccn3)c(C)nc12`, the melting point was in the range of 222 to 224 °C.

As to `NC(=O)NN=Cc1cccc2c(Br)cccc12`, the melting point fell in the range of 257 to 259 °C.

In the case of `ClC(Cl)C(Cl)(Cl)C(Cl)(Cl)Cl`, the melting point turned out to be 29.4 °C.

Take `CCOC(=O)c1c(NC(=S)NCc2ccccc2)sc2c1CCCC2`: the melting point was in the range of 125 to 127 °C.

The compound `O=[N+]([O-])c1ccccc1S(=O)(=O)Cl` gave a melting point of 67 °C.

Consider `COC(CC(C)=O)OC`, for which the melting point was -82 °C.

The compound `CC(=O)Nc1ccccc1CCc1ccccc1` came in with a melting point of 117 °C.

Turning to `CCN(CC)c1ccc(N)cc1`, the melting point was determined as 27 °C.

`CSCCC(NC(=O)c1cccnc1SC)C(=O)O` (stereo not drawn) returned a melting point of 157 to 161 °C.

As to `NNC(=O)c1ccc([N+](=O)[O-])cc1`, the melting point is 210 to 214 °C.

`N#CC(OC1OC(COC2OC(CO)C(O)C(O)C2O)C(O)C(O)C1O)c1ccccc1` (stereo not drawn) returned a melting point of 224 °C.

In the case of `CCCCCCCCCCCCC(Oc1ccc([N+](=O)[O-])cc1)C(=O)NN` (stereo not drawn), the melting point was found to be 127 °C.

Regarding `Cc1ccc(O)c(-n2nc3ccccc3n2)c1`, the melting point is 132 °C.

`COc1cc2c(cc1OC)C(c1ccccc1)=NCC2` showed a melting point of 121 to 125 °C.

On to `CC1(C)CC(=O)C2=C(C1)Nc1c(ccc3ccccc13)C2c1ccc(F)cc1` (stereo not drawn), for which the melting point turned out to be 279 °C.

Compound `O=C(OCc1ccccc1)[C@@H](O)[C@H](O)C(=O)OCc1ccccc1` returned a melting point of 63 to 65 °C.

`O=C(CCl)Nc1ccc([N+](=O)[O-])cc1`: the melting point fell in the range of 185 to 186 °C.

For the compound `Cn1nc(-c2cccs2)cc1CCl`, the melting point fell in the range of 96 to 97 °C.

Turning to `CCOC(=O)c1ccccc1O`, the melting point lay within 2 to 3 °C.

As to `CCCCCCCCCCNC(=O)C(C(F)(F)F)C(F)(F)F`, the melting point is 66 °C.

On to `Oc1cc(Cl)cc(Cl)c1Cl`, for which the melting point amounted to 62 °C.

As for `CC(=O)OC1C2COC(O2)C(OC(C)=O)C1OC(C)=O` (stereo not drawn), the melting point was 110 °C.

The compound `COC1C(OC(=O)C=CC=CC=CC=CC(=O)O)CCC2(CO2)C1C1(C)OC1CC=C(C)C` (stereo not drawn) had a melting point of 194 °C.

Consider `OCc1ccc(-c2ccsc2)cc1`, for which the melting point fell in the range of 152 to 154 °C.

Consider `Cc1ccc(-c2nc3ccc(C)cn3c2CC(=O)N(C)C)cc1`, for which the melting point is 196 °C.

`COc1cc2c(cc1OC)C(=O)C2` had a melting point of 141 °C.

`COc1ccc2c(c1)CC1(CCC(O)(c3ccc(C(C)(C)C)cc3)CC1)C2=O` (stereo not drawn) showed a melting point of 183 to 184 °C.

For the compound `O=C(Oc1ccc(Cl)cc1)c1c(Cl)c(Cl)c(C(=O)Oc2ccc(Cl)cc2)c(Cl)c1Cl`, the melting point amounted to 244 °C.

Consider `O=S(=O)(O)c1ccc(N=Nc2ccc(N=Nc3ccc(S(=O)(=O)O)cc3)cc2)cc1`, for which the melting point stood at 157 °C.

For the compound `CC(=O)OC(OC(C)=O)c1ccco1`, the melting point was 53.3 °C.

For `CCOC(=O)C(CO)(CO)C(=O)OCC`, the melting point was determined as 50 °C.

The compound `CC(C)(C)c1cc(C(=O)c2ccccc2)c(O)cc1O` returned a melting point of 144 to 148 °C.

Compound `O=S(=O)(Cl)c1cc(C(F)(F)F)ccc1N1CCOCC1` had a melting point of 81.5 to 84 °C.

As for `CC(CCC(=O)O)C1CCC2C3CCC4C(Br)C(=O)CCC4(C)C3CCC12C` (stereo not drawn), the melting point was 190 °C.

For `O=C(O)C=Cc1ccc(N2CCCC2)c([N+](=O)[O-])c1`, the melting point lay within 243 to 245 °C.

As for `Brc1cnc2c(c1)OCCN2`, the melting point was 116 to 119 °C.

`Cc1cc(C)c(C2(C)CC(C(=NO)c3cc4ccccc4o3)C2)c(C)c1` (stereo not drawn) yielded a melting point of 189 to 190 °C.

The compound `c1c2c(cc3c1CC3)CC2` came in with a melting point of 101 °C.

In turn, `O=C(C(=O)c1ccc2c3c(cccc13)CC2)c1ccccc1` gave a melting point of 148 °C.

The compound `O=S(=O)(Cl)c1ccccc1I` displayed a melting point of 51 to 52 °C.

The compound `COC(=O)c1cnc(SCC(=O)c2ccc(Cl)cc2)n1C` registered a melting point of 126 to 127 °C.

As for `COc1ccc(-c2nnc3n2NC(c2ccc([N+](=O)[O-])cc2)S3)cc1` (stereo not drawn), the melting point was in the range of 209 to 211 °C.

Turning to `O=C1OC(=O)c2cc([N+](=O)[O-])cc3cccc1c23`, the melting point was 247 to 254 °C.

Consider `O=C1C=CC(=O)N1c1ccc(Cc2ccc(N3C(=O)C=CC3=O)cc2)cc1`, for which the melting point lay within 155 to 159 °C.

As for `O=C1C(=Cc2ccc(F)cc2)CCCC1=Cc1ccc(F)cc1`, the melting point lay in the range of 147 to 154 °C.

Regarding `O=c1cccccc1`, the melting point is -7 °C.

Turning to `CC(C)(C)CC(C)(C)S`, the melting point is -74 °C.

Turning to `O=C(O)c1ccc(OC(F)(F)C(F)F)cc1`, the melting point lay within 176 to 177 °C.

`COc1cc(C(=O)O)c(OC)c([N+](=O)[O-])c1` displayed a melting point of 180 to 184 °C.

In the case of `O=[N+]([O-])c1ccc(Oc2ccc(C(F)(F)F)cc2Cl)cc1`, the melting point was 68 °C.

`O=C(Cc1ccccc1)C(Cc1ccccc1)=NNc1ccc([N+](=O)[O-])cc1`: the melting point was 174 °C.

Turning to `Cc1cc(-c2ccc(NC=O)c(C)c2)ccc1NC=O`, the melting point fell in the range of 265 to 270 °C.

`O=C1C=C(Nc2ccccc2)CCC1` had a melting point of 178 to 182 °C.

Compound `CC(C)(C)OC(=O)N1CCN(c2ccc(C#N)cc2)CC1` had a melting point of 124 to 125 °C.

`CCN1CCCC1CNC(=O)c1cc(S(N)(=O)=O)ccc1OC` (stereo not drawn) returned a melting point of 178 °C.

As for `COc1ccc[nH]c1=O`, the melting point was 115 °C.

`NCCCCCCNCCCCCCN` displayed a melting point of 33 °C.

As to `COc1cccc2cc(C(=NO)c3cc4cccc(OC)c4o3)oc12`, the melting point lay in the range of 214 to 215 °C.

The compound `COC(=O)C1=C(C)NC(=O)NC1c1ccc(Cl)cc1` (stereo not drawn) had a melting point of 172 °C.

In turn, `CN(C)c1ccc(CCC2CCc3ccccc3N2C(=O)c2ccccc2)cc1` (stereo not drawn) gave a melting point of 121 °C.

The compound `CCCCc1ccc(NC(=O)Oc2ccc(OC)cc2)cc1` registered a melting point of 143 °C.

In turn, `O=C(O)c1cccc(N2CCOCC2)c1` had a melting point of 161 to 163 °C.

Compound `O=C(O)c1cccc(O)c1[N+](=O)[O-]` came in with a melting point of 179 °C.

Take `Nc1ccc(C(=O)O)cc1N`: the melting point worked out at 215 °C.

The compound `O=C(Nc1nnc(-c2ccc(Cl)cc2)o1)c1cccc(C(F)(F)F)c1` yielded a melting point of 215 to 217 °C.

For `O=C1CC2(CCCC2)CC(=O)N1`, the melting point was 153 to 155 °C.

As to `Cc1cc(Cl)ncc1[N+](=O)[O-]`, the melting point is 36 to 40 °C.

Consider `Clc1ccc(CC(=CCN2CCCC2)c2ccccc2)cc1`, for which the melting point worked out at 48.5 °C.

The compound `Cc1nc(-c2cccc(Br)c2)cs1` came in with a melting point of 56 to 60 °C.

In turn, `Clc1ncnc2c1cnn2-c1ccccc1` returned a melting point of 126 to 128 °C.

For `COC(=O)c1cc(OC)c(OC)cc1N`, the melting point is 129 °C.

`Ic1ccc(OCc2ccccc2)cc1` displayed a melting point of 62 °C.

Take `CCCCCCCCCCCCc1ccc(N)cc1`: the melting point worked out at 40.5 °C.

Turning to `CCCOc1c2cccc1Cc1cc(Br)cc(c1O)Cc1cccc(c1OCCC)Cc1cc(Br)cc(c1O)C2`, the melting point was 307 to 309 °C.

Compound `Cc1nc2ccccn2c1CO` yielded a melting point of 157 to 158 °C.

In the case of `CC(=O)Nc1ccc(S(=O)(=O)Nc2ccc([N+](=O)[O-])cc2)cc1`, the melting point amounted to 240 °C.

As for `Clc1ccc(OCOc2ccc(Cl)cc2)cc1`, the melting point amounted to 70.5 °C.

With `O=C(CBr)c1cccc(Cl)c1`, the melting point was in the range of 39 to 41 °C.

In turn, `CC(=O)Oc1c(-c2ccccn2)[nH]c2ccccc12` showed a melting point of 130 °C.

Turning to `CCCCCCCCCCCCCc1ccccc1`, the melting point was 10 °C.

In general, melting point refers to the temperature of the solid-liquid transition.
